Values of other authors in patent publication US10324098B2, “T2R taste receptors and genes encoding same” (SENOMYX, INC., priority 2000, dated 2019).

Key:
[1] = molecular target: T1, human T2R4 (Homo sapiens, UniProt Q9NYW5)
T1 sequence (Q9NYW5 1-299): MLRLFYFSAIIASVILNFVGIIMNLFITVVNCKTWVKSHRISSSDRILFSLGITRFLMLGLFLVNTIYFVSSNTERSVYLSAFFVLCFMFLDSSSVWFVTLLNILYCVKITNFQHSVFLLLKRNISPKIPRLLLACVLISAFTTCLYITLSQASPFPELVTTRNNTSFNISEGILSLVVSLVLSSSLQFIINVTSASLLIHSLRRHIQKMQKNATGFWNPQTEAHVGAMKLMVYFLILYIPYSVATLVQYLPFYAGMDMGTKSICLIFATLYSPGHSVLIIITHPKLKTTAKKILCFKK

[2] = molecular target: T2, mouse T2R8 (Mus musculus, UniProt Q9JKT3)
T2 sequence (Q9JKT3 1-297): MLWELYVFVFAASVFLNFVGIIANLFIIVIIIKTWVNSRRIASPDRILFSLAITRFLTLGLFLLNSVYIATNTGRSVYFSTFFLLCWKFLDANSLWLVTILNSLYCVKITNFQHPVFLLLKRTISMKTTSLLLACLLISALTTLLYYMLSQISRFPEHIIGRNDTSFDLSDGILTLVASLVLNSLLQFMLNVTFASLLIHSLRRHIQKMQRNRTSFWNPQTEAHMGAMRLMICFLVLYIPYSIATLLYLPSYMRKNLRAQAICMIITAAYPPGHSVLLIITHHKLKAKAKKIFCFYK

[3] = molecular target: T3, mouse T2R5 (Mus musculus, UniProt Q9JKT4)
T3 sequence (Q9JKT4 1-300): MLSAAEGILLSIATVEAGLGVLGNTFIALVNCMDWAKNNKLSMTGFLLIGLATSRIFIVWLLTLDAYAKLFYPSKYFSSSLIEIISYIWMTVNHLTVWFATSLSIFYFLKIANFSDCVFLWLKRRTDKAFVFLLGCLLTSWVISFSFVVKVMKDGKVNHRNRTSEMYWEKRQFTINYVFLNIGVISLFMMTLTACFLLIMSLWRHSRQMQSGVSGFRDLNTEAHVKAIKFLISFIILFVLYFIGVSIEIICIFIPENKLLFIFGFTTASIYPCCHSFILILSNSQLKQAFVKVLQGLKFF

[4] = molecular target: T3, mouse T2R5; settings: mouse T2R5, G Protein gustducin

Row | receptor responsive to tastant [1] | receptor responsive to tastant [2] | Compound | receptor receptive to tastant [3] | ligand dependent coupling with gustducin [4]
1 | specifically responsive | specifically responsive | CCCc1cc(=O)[nH]c(=S)[nH]1 [PROP, 6-n-propylthiouracil] | – | –
2 | specifically responsive | specifically responsive | CC[N+](CC)(CC(=O)Nc1c(C)cccc1C)Cc1ccccc1 [denatonium] | – | –
3 | – | – | C[C@@H]1C[C@@H]([C@H](O)CC2CC(=O)NC(=O)C2)C(=O)[C@@H](C)C1 [cycloheximide] | specifically receptive | strong cycloheximide dependent coupling with gustducin
